In US12391737B2, “Soluble NPY2 receptor agonists” (Boehringer Ingelheim International GmbH, priority 2020, dated 2025):

What was measured:
[1] = target: T1, Human Neuropeptide Y2 Receptor (Homo sapiens, UniProt P49146); experiment: Radioligand binding competition assay (RLB); conditions: Table 3, 125I-PYY(1-36) competition; read-out: Ki
T1 construct: purchased CHEMICON HTS066M
T1 sequence (P49146 1-381): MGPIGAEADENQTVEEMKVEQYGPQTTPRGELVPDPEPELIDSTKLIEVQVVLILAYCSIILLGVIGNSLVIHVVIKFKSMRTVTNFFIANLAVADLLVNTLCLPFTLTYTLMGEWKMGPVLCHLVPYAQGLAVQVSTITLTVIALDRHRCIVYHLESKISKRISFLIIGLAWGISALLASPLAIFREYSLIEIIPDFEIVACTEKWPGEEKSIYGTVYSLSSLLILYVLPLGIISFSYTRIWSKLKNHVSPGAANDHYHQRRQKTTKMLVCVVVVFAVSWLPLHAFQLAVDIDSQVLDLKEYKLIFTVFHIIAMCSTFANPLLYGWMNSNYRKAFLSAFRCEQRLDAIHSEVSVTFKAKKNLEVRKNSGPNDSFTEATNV
Summary of the method: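 Displacement of radioligand is measured after 2 h at room temperature with receptor membranes in Mg2+/Ca2+ HEPES buffer, pH 7.4. Filter-bound radioactivity is counted and IC50 obtained from curve fitting.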

[2] = Solubility determination; conditions: for Sol6: pH 6; for Sol7: pH 7
Summary of the method: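 Sample: TFA-salt peptide at 10 mg/ml target in 0.1 M Na diphosphate, pH 6.4 or 7.0, shaken 2 h RT, filtered, diluted to 1 mg/ml.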

[3] = target: T2, human NPY2 receptor (hY2R) (Homo sapiens, UniProt P49146); experiment: HTRF cAMP Gi assay, hY2R
T2 sequence (P49146 1-381): T1 sequence (P49146 1-381)
Source text: The Homogenous Time Resolved fluorescence (HTRF) technology optimized for Gi coupled receptors has thoroughly been described in Cisbio cAMP Gi kit manual. Briefly, the production of intracellular cAMP will generate a competition between unlabeled cAMP and exogenously added d2-cAMP for anti-cAMP antibodies conjugated to cryptate. CHO-K1 cells stably expressing the human NPY1, NPY2, NPY4 and NPY5 receptors were used with the cells brought to life from a frozen stock immediately before assay performance. 2000 cells per well were applied for all four NPY receptor subtype assays. A 384-well format was used applying a total volume of 20 μl using 5 μl cells, 2.5 μl peptide agonist, 2.5 μl forskolin and 5 μl of each of the fluorophores. […] Concentration-response evaluation of compounds was performed with 11 concentrations of agonist peptides (covering 3 decades). EC50 values were calculated by nonlinear regression using sigmoid concentration-response with variable slope.

[4] = target: T3, human NPY5 receptor (hY5R) (Homo sapiens, UniProt Q15761); experiment: HTRF cAMP Gi assay, hY5R
T3 sequence (Q15761 1-445): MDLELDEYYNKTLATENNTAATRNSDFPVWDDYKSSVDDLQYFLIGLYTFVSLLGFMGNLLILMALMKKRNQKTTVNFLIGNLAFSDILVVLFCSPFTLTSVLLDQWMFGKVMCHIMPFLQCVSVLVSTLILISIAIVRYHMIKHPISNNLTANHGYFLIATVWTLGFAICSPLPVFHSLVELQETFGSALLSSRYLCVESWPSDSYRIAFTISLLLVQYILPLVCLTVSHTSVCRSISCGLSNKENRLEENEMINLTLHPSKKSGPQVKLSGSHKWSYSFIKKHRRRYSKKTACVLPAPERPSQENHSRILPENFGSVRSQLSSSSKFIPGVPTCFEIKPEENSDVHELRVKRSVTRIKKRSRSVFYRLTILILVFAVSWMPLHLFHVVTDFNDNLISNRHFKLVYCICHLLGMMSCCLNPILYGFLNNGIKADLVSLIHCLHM

Ki [1]	Sol6 [2]	Sol7 [2]	EC50 [3]	EC50 [4]	Compound
8.93 nM	9.8 mg/mL	9.6 mg/mL	0.13 nM	> 5000 nM	CC(C)CC(=O)N[C@@H](C)C(=O)N1CCC[C@H]1C(=O)N[C@@H](CCC(=O)O)C(=O)N[C@@H](CCCCNC(=O)CCCCCNC(=O)CC[C@H](NC(=O)CCCCCCCCCCCCCCCCC(=O)O)C(=O)O)C(=O)N1CCC[C@H]1C(=O)N[C@@H](CCC(=O)O)C(=O)N[C@@H](CCC(=O)O)C(=O)N[C@@H](CCC(=O)O)C(=O)N[C@@H](C)C(=O)N[C@H](C(=O)N1CCC[C@H]1C(=O)N[C@@H](CCC(=O)O)C(=O)N[C@@H](CCC(=O)O)C(=O)N[C@@H](CC(C)C)C(=O)N[C@@H](CCC(N)=O)C(=O)N[C@@H](CCCNC(=N)N)C(=O)N[C@@H](Cc1ccc(O)cc1)C(=O)N[C@@H](Cc1ccc(O)cc1)C(=O)N[C@H](C(=O)N[C@@H](CO)C(=O)N[C@@H](CC(C)C)C(=O)N[C@@H](CCCNC(=N)N)C(=O)N[C@@H](Cc1c[nH]cn1)C(=O)N[C@@H](Cc1ccc(O)cc1)C(=O)N[C@@H](Cc1ccc(O)cc1)C(=O)N[C@@H](CC(N)=O)C(=O)N[C@@H](Cc1c[nH]c2ccccc12)C(=O)N[C@@H](CC(C)C)C(=O)N[C@H](C(=O)N[C@@H](CCCNC(=N)N)C(=O)N[C@@H](CCC(N)=O)C(=O)N[C@@H](CCCNC(=N)N)C(=O)N[C@@H](Cc1ccc(O)cc1)C(N)=O)[C@@H](C)O)C(C)C)[C@@H](C)O [Compound 146, N{alpha-4}-(3-methylbutanoyl)-N{epsilon-7}-(6-[(4S)-4-carboxy-4-(17-carboxyheptadecanamido)butanamido]hexanoyl)-[4A,7K,9E,11E,13T,18Q,22V,28Y,30W,31L]-hPYY(4-36)]
2.79 nM	9.0 mg/mL	9.2 mg/mL	0.197 nM	> 5000 nM	CC(C)CC(=O)N[C@@H](C)C(=O)N1CCC[C@H]1C(=O)N[C@@H](CCC(=O)O)C(=O)N[C@@H](CCCCNC(=O)CCCCCNC(=O)CC[C@H](NC(=O)CCCCCCCCCCCCCCCCC(=O)O)C(=O)O)C(=O)N1CCC[C@H]1C(=O)N[C@@H](CCC(=O)O)C(=O)N[C@@H](C)C(=O)N[C@@H](CC(=O)O)C(=O)N[C@@H](C)C(=O)N[C@@H](CCC(=O)O)C(=O)N1CCC[C@H]1C(=O)N[C@@H](CCC(=O)O)C(=O)N[C@@H](CCC(=O)O)C(=O)N[C@@H](CC(C)C)C(=O)N[C@@H](CCC(N)=O)C(=O)N[C@@H](CCCNC(=N)N)C(=O)N[C@@H](Cc1ccc(O)cc1)C(=O)N[C@@H](Cc1ccc(O)cc1)C(=O)N[C@H](C(=O)N[C@@H](CO)C(=O)N[C@@H](CC(C)C)C(=O)N[C@@H](CCCNC(=N)N)C(=O)N[C@@H](Cc1c[nH]cn1)C(=O)N[C@@H](Cc1ccc(O)cc1)C(=O)N[C@@H](Cc1ccc(O)cc1)C(=O)N[C@@H](CC(N)=O)C(=O)N[C@@H](Cc1c[nH]c2ccccc12)C(=O)N[C@@H](CC(C)C)C(=O)N[C@H](C(=O)N[C@@H](CCCNC(=N)N)C(=O)N[C@@H](CCC(N)=O)C(=O)N[C@@H](CCCNC(=N)N)C(=O)N[C@@H](Cc1ccc(O)cc1)C(N)=O)[C@@H](C)O)C(C)C [Compound 72, N{alpha-4}-(3-methylbutanoyl)-N{epsilon-7}-(6-[(4S)-4-carboxy-4-(17-carboxyheptadecanamido)butanamido]hexanoyl)-[4A,7K,9E,10A,13E,18Q,22V,28Y,30W,31L]-hPYY(4-36)]
